In PMC11546719, “Immune Modulatory Profile of the Pateamines PatA and Des-Methyl Des-Amino PatA” (International Journal of Molecular Sciences, 2024):

How the values were obtained:
M1 MdMs [1] = test: Polarization of MdMs to M1 MdMs (zombie staining, flow cytometry, ELISA/CBA); format: cell-based, human; conditions: for Surface marker expression (CD86, CD80, TREM2, HLA-DR, CD206, CD14, CD163) / Apoptosis (zombie staining) / Inflammatory environment: release of cytokines (IL-6, IL-8, CCL2, CCL17, CL18, IFN-γ) and PGE2: M1 MdMs; for Surface marker expression (CD86, CD80, TREM2, HLA-DR, CD206, CD14, CD163) / Apoptosis (zombie staining): 48 h; for Surface marker expression (CD86, CD80, TREM2, HLA-DR, CD206, CD14, CD163): flow cytometry; for Apoptosis (zombie staining): IFN-γ polarization, 0.5-5 nM; for Inflammatory environment: release of cytokines (IL-6, IL-8, CCL2, CCL17, CL18, IFN-γ) and PGE2: supernatant, ELISA or CBA; for Effect on the release of inflammatory markers, M1 MdM: summary table
Experimental: (§1) The differentiation of human monocytes to macrophages (MdMs) was performed as previously described. Briefly, 0.5 × 10^6 CD14^+ cells/well were pretreated with different concentrations of PatA and DMDA or vehicle (DMSO) for 30 min. After pre-incubation, differentiation was initiated by the addition of 10 ng/mL GM-CSF for M1 MdMs or 50 ng/mL M-CSF for M2 MdMs and incubated for 7 days.
(§2) The polarization of MdMs to M1 or M2 MdMs was performed as previously described. M1 and M2 MdM polarization was conducted in separate experiments. Briefly, M1 MdMs were polarized in presence of PatA (0.5, 2.5, 5 nM), DMDA (0.5, 2.5, 5 nM) or vehicle (DMSO) with 20 ng/mL human IFN-γ for 48 h. M2 MdMs were polarized in presence of PatA (0.5, 2.5, 5 nM), DMDA (0.5, 2.5, 5 nM) or vehicle (DMSO) with 10 ng/mL human IL-4 for 24 h.
(§3) Surface marker analysis was performed as described previously. Briefly, 1.5–2 × 10^5 cells of each sample were blocked with human FcR Blocking Reagent (15 min, 4 °C). A Zombie Aqua™ Fixable Viability Kit (1:500 dilution, BioLegend, San Diego, CA, USA) was used according to the manufactory protocol to discriminate living and dead cells. Afterwards, samples were stained with a mixture of different surface marker antibodies (15 min, 4 °C) and measured with MACSQuant® Analyzer 10 flow cytometer. For M1-/M2-MdMs anti-CD86, anti-CD14, anti-HLA-DR, anti-CD206, anti-CD80, anti-TREM2 and anti-CD163 were used. For T cells, anti-CD69, anti-CD54, anti-CD49a, anti-CD18, anti-CD134, anti-CD154, anti-CD3 and anti-CD25 were analyzed. For B cells, anti-CD27, anti-CD19 and anti-CD38 were applied. For T cell and B cell proliferation assay, freshly isolated T and B cells were stained with CTV and detected using flow cytometry. Naïve B cells were characterized as CD19^+CD27^lowCD38^med, memory B cells as CD19^+CD27^med CD38^low and plasma cells as CD27^+CD38^+ cells. M1 MdMs and M2 MdMs cell population was gated using FSC/SSC channel. T cells were gated as CD3^+CD25^+ positive cells. The geometric mean of the fluorescent intensity was calculated using FlowJo software v10 (Treestar, Ashland, […], USA). Fold induction of surface marker expression was calculated using the DMSO-treated cells as the control.
(§4) For determination of cytokine concentrations in the supernatant of humane immune cells, cytometric bead array (BD Biosciences, Heidelberg, Germany) for IL-10, IL-17, IL-8, IL-6, IFN-γ and CCL2 was used. For the detection of CCL18, CCL17, IgG, IgA and PGE2, an ELISA was performed. The cytometric bead arrays and the ELISAs were performed according to the protocol of the supplier.

M2 MdMs [2] = test: Polarization of MdMs to M2 MdMs (zombie staining, flow cytometry, ELISA/CBA); format: cell-based, human; conditions: for Inflammatory environment (inflammatory mediators in supernatant): ELISA or CBA; for Apoptosis (zombie staining): IL-4 polarization, 0.5-5 nM; for Effect on the release of inflammatory markers, M2 MdM: summary table
Experimental: as §1, §2, §3, §4

M1 MdMs [3] = test: Energy metabolism (Seahorse OCR/ECAR) in M1 MdMs; format: cell-based, human; conditions: 48 h, 0.5-5 nM
Experimental: (§5) The determination of the energy metabolism was performed as described previously. Briefly, for the analysis of the extracellular acidification rate (ECAR) and the oxygen consumption rate (OCR) for human B cells, Tcells, M1 MdMs and M2 MdMs, the Seahorse XFe96 FluxPak (Agilent, Waldbronn, Germany) was used as recommended by the manufacturer. MdMs were polarized to M1 or M2 MdMs in the presence of PatA (0.5, 2.5, 5 nM), DMDA (0.5, 2.5, 5 nM) or vehicle (DMSO) for 48 h or 24 h, respectively. T cells were activated in the presence of PatA (0.25, 0.5 nM), DMDA (0.25, 0.5 nM), silvestrol or DMSO. B cells were activated in the presence of PatA (0.25, 0.5 nM), DMDA (0.25, 0.5 nM), silvestrol (5 nM) or rapamycin (10 ng/mL positive control). Cells were washed with Seahorse XF RPMI medium pH 7.4 (Agilent, Waldbronn, Germany) and OCR and ECAR were measured as octuplicates for a period of 160 min using the Seahorse XFe96 Analyzer (Agilent, Waldbronn, Germany) and analyzed by Wave Software 2.6.3.8 (Agilent, Waldbronn, Germany). The relative values were calculated by relating the OCR or ECAR values obtained after 50 min to the values of the vehicle control (not stimulated).

M2 MdMs [4] = test: Energy metabolism (Seahorse OCR/ECAR) in M2 MdMs; format: cell-based, human; conditions: 24 h, 0.5-5 nM
Experimental: as §5

B cells = test: Energy metabolism (Seahorse OCR/ECAR) in B cells; format: cell-based, human; conditions: 5 days, PatA, DMDA 0.25-0.5 nM, silvestrol 5 nM, rapamycin 10 ng/mL
Experimental: as §5

[5] = system: Salmonella typhimurium strain TA98; test: Ames MPF test, strain TA98; format: cell-based; conditions: TA98, with and without S9, 10-250 nM
Experimental: (§6) The Ames MPF 98/100 test (Xenometrix, Allschwil, Switzerland) was performed as recommended by the supplier and recently published. Briefly, two bacteria strains incapable of producing histidine (Salmonella typhimurium strains TA98 and TA100) were used. Liver homogenate S9 was applied to simulate the metabolic conversions of PatA and DMDA. After exposure to increasing concentrations of PatA (0, 10, 50, 250 nM), DMDA (0, 10, 50, 250 nM) or with positive controls (2 μg/mL for 2-NF (TA98), 2.5 μg/mL for 4-NQO (TA100), 63 μg/mL (TA100 with SF9) and 25 µg/mL (TA98 with SF9) for 2-AA), the cultures were diluted in pH indicator medium lacking histidine and incubated for two days. Cells that had undergone reversion to amino acid prototrophy grew into colonies and bacterial metabolism reduced the pH of the medium, changing the color of that well. Revertant colony numbers of each well were counted and related to the negative control (DMSO). The experiment was conducted once in triplicate. The Ames MPF calculation sheet provided by Xenometrix was used for data analysis. Fold induction over the baseline was calculated as the ratio of the mean number of positive wells to the baseline. The baseline was obtained by adding one standard deviation to the mean number of positive wells of the solvent control. Compounds with mutagenic potential were characterized by revertant numbers above the baseline.

[6] = system: Salmonella typhimurium strain TA100; test: Ames MPF test, strain TA100; format: cell-based; conditions: TA100, with and without S9, 10-250 nM
Experimental: as §6

[7] = Transport assay, porous membrane without cell barrier; format: in vitro ADME; conditions: 100 nM; for Transport rate without a cell barrier: apical to basolateral
[8] = M2 MdMs, CD163low population, 24 h

| Compound | Surface marker expression (CD86, CD80, TREM2, HLA-DR, CD206, CD14, CD163) (M1 MdMs [1]) | Apoptosis (zombie staining) (M1 MdMs [1]) | Inflammatory environment: release of cytokines (IL-6, IL-8, CCL2, CCL17, CL18, IFN-γ) and PGE2 (M1 MdMs [1]) | Effect on the release of inflammatory markers, M1 MdM (M1 MdMs [1]) | CD80 surface marker expression (M2 MdMs [2]; [8]) | CD206 surface marker expression (M2 MdMs [2]; [8]) | Inflammatory environment (inflammatory mediators in supernatant) (M2 MdMs [2]; M2 MdMs) | Apoptosis (zombie staining) (M2 MdMs [2]; M2 MdMs, 24 h) | Effect on the release of inflammatory markers, M2 MdM (M2 MdMs [2]) | Energy metabolism: glycolysis (ECAR) and oxidative phosphorylation (OCR) (M1 MdMs [3]) | Energy metabolism: glycolysis (ECAR) and oxidative phosphorylation (OCR) (M2 MdMs [4]) | Energy metabolism: glycolysis (ECAR) and oxidative phosphorylation (OCR) (B cells) | Mutagenic potential (Ames test) [5] | Mutagenic potential (Ames test) [6] | Transport rate without a cell barrier ([7]; 4 h) | Stability in the media under transport assay conditions ([7]; inferred from transport without cell barrier) | TREM2 surface marker expression (M2 MdMs [2]; M2 MdMs, CD163low population, 24 h, 5 nM) | Transport rate without a cell barrier ([7]; 24 h) [%] |
| --- | --- | --- | --- | --- | --- | --- | --- | --- | --- | --- | --- | --- | --- | --- | --- | --- | --- | --- |
| CC(/C=C/C(C)=C/[C@@H]1Cc2nc(cs2)[C@@H](C)C[C@@H](N)CC(=O)O[C@@H](C)C/C(C)=C/C=C\C(=O)O1)=C\CN(C)C [PatA, pateamine A] | no significant effect on surface marker expression | Neither PatA nor DMDA induced apoptosis | did not affect the inflammatory environment | No effect | induced the pro-inflammatory marker CD80 | reduced the anti-inflammatory marker CD206 | did not affect the inflammatory environment | did not induce apoptosis | No effect | reduced glycolysis and oxidative phosphorylation | reduced glycolysis and oxidative phosphorylation | induced oxidative phosphorylation and glycolysis | negative in all Ames mutagenic assays | negative in all Ames mutagenic assays | about 28% | probably unstable in the media | – | – |
| CC(/C=C/C(C)=C/[C@@H]1Cc2nc(cs2)CCCCC(=O)O[C@@H](C)C/C(C)=C/C=C\C(=O)O1)=C\CN(C)C [DMDA, des-methyl des-amino pateamine A] | only reduced CD14 expression | Neither PatA nor DMDA induced apoptosis | did not affect the inflammatory environment | No effect | – | – | did not affect the inflammatory environment | did not induce apoptosis | No effect | had no effect on energy consumption | had no effect on energy consumption | induced only glycolysis | negative in all Ames mutagenic assays | negative in all Ames mutagenic assays | about 28% | – | increased the anti-inflammatory surface marker TREM2 | ~41 |
